In patent US20250186404A1, “METHODS OF USING A (THIAZOLYL)BENZENESULFONAMIDE DERIVATIVE” (Cyteir Therapeutics, Inc., priority 2023, published 2025) one finds IC50 data, which are given here for three compounds.

Holding throughout (format): cell-based
In assay [1] the target is T1, human MCT1 (Homo sapiens, UniProt P53985).
T1 construct: expressed in transfected cells
T1 sequence (P53985 1-500): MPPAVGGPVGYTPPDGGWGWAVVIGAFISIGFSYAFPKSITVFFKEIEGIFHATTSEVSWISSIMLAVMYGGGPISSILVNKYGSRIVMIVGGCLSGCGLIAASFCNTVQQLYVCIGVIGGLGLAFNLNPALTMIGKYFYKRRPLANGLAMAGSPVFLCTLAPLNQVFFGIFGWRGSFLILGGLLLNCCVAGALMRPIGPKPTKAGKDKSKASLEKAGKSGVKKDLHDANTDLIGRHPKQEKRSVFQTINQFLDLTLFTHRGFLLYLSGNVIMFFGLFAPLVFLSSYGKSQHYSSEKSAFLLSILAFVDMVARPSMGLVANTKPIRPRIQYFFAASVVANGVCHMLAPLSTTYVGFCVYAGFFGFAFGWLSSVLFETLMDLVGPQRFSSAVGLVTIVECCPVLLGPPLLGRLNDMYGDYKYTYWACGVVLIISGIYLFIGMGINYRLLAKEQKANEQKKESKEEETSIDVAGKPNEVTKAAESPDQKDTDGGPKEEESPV
T1 sequence (P26453 23-388 partner): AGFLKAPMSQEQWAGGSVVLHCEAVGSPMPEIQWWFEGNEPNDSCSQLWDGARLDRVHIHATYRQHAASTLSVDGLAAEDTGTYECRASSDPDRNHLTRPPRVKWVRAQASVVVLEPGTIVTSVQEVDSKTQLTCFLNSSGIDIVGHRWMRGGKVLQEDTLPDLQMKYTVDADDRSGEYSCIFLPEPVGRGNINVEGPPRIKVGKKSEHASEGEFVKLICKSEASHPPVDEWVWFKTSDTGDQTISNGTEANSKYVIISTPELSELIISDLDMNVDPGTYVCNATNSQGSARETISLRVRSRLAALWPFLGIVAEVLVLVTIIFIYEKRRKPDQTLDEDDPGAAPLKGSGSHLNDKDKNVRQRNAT
Put plainly: Inhibition of 3BP import (rescue of viability) in MCT1-overexpressing INS-1 cells. To be noted: INS-1 cells over-expressing human MCT1, rescue from LC100 3BP. The protocol:
(§1) Human MCT1-4 were stably expressed in INS-1 rat pancreatic islet B-cells, which are deficient in endogenous MCT expression. 3-Bromopyruvate (3BP), a highly reactive and cytotoxic monocarboxylate, can enter the INS-1 cells via the overexpressed MCT isoform, resulting in rapid cell death. However, prevention of 3BP transport into the cell by an MCT inhibitor can prevent 3BP-mediated cell death (FIG. 16).
(§2) INS-1 cells over-expressing an MCT paralog were treated with a titration of 3BP to determine the lowest concentration that results in 100% cell killing (LC100). The INS-1 cells were then pre-treated with a titration of Compound 67A before exposure to the LC100 concentration of 3BP specific for that MCT-over-expressing cell line, and rescue of cell viability was measured (FIG. 17).

The target of assay [2] is T2, Human MCT3 (Homo sapiens, UniProt O95907).
T2 construct: expressed in transfected cells
T2 sequence (O95907 1-504): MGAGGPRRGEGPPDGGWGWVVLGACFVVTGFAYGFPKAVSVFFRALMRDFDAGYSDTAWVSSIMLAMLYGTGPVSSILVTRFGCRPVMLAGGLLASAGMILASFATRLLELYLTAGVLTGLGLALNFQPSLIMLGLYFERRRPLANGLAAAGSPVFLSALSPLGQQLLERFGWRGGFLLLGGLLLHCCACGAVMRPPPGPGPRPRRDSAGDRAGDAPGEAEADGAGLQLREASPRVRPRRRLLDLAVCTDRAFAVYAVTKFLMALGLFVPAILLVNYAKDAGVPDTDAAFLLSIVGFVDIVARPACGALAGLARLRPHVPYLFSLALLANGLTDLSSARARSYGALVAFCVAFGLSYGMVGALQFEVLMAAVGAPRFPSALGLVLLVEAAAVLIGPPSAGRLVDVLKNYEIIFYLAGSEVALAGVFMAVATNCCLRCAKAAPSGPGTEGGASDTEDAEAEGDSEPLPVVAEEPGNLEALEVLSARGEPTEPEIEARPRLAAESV
T2 sequence (P26453 23-388 partner): T1 sequence (P26453 23-388 partner)
Put plainly: Inhibition of 3BP import (rescue of viability) in MCT3-overexpressing INS-1 cells. The following applies: INS-1 cells over-expressing human MCT3, rescue from LC100 3BP. As to the method:
as §1, §2

The target of assay [3] is T3, Human MCT4 (Homo sapiens, UniProt O15427).
T3 construct: expressed in transfected cells
T3 sequence (O15427 2-465 limits assumed): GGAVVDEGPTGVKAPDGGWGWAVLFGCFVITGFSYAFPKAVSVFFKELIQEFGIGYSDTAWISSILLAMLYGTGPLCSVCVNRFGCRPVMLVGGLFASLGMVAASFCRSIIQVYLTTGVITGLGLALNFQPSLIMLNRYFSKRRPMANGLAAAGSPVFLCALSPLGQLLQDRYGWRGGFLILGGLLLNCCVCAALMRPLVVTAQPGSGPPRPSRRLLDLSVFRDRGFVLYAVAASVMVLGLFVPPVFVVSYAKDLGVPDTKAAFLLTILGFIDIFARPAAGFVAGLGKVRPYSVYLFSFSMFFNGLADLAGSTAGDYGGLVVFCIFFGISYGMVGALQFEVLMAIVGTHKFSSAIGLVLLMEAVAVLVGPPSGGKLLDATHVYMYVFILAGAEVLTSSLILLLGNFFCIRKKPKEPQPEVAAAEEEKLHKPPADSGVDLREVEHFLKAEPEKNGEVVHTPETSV
T3 sequence (P26453 23-388 partner): T1 sequence (P26453 23-388 partner)
Put plainly: Inhibition of 3BP import (rescue of viability) in MCT4-overexpressing INS-1 cells. To be noted: INS-1 cells over-expressing human MCT4, rescue from LC100 3BP. As to the method: as §1, §2

Regarding `CC(C)OC(=O)Nc1ccc(-c2cnc([C@H]3CC[C@H](NC(=O)OC(C)C)CC3)s2)c(S(=O)(=O)NC(C)(C)C)c1` [Compound 67A], the IC50 (as a rule, the concentration needed to halve the response being measured) lay in the range of 100 to 1000 nM in assay [1], 10 to 33 µM in assay [2] and 1 to 10 µM in assay [3].
Regarding `O=C(Nc1ccccc1C(=O)O)c1cc(S(=O)(=O)c2ccccc2)ccc1Cl` [BAY8002], the IC50 is 1000 to 10000 nM in assay [1], over 33 µM in assay [2] and over 33 µM in assay [3].
On to AZD3965, for which the IC50 was under 100 nM in assay [1], over 33 µM in assay [2] and over 33 µM in assay [3].
